Here are results for nine molecules from patent publication US20230174507A1, “IMIDAZOLE 3-OXIDE DERIVATIVE BASED ACSS2 INHIBITORS AND METHODS OF USE THEREOF” (METABOMED LTD., priority 2020, published 2023).

In assay [1] the target is T1, ACSS2 in MDA-MB-468 cells (Homo sapiens, UniProt Q9NR19).
T1 construct: endogenous in cells; host or cells: MDA-MB-468 cells, hypoxia (1% O2)
Put plainly: Cellular fatty-acid IC50: 13C-acetate incorporation into fatty acids (palmitate), LC-MS. The format is cell-based. The conditions noted are these: hypoxic conditions (1% O2), 75% charcoal stripped serum, 5 hours, 13C-acetate into palmitate, read-out: Cellular Fatty-acid IC50 High Serum MDA468. As to the method: Cellular Fatty-Acid IC50 Determination:
The cellular activity of ACSS2 was measured in MDA-MB-468 cells under hypoxic conditions by tracing the incorporation of labelled carbons from ^13C-acetate into newly synthesized fatty acids. The assay was performed using 75% charcoal stripped serum (high serum conditions).
MDA-MB-468 cells were seeded in 12-well plates (0.35×10^6 cells per well) in plating medium (Dulbecco's Modified Eagle Medium containing 25 mM D-glucose, 1 mM sodium pyruvate, 10% v/v fetal bovine serum, and 2 mM glutamine) and incubated for 24 hours under hypoxic conditions (1% O2).
The next day, tracing medium containing DMEM (01-057-1A) containing 75% charcoal stripped serum (Biological industries 04-201-1A), 3.5 μg/mL Biotin (Sigma-Aldrich B4639), 1 mM Pyruvate, 5.5 mM Glucose, 0.65 mM Glutamine and 0.5 mM ^13C-Acetate (Sigma-Aldrich #282014) with serial dilutions of the compounds in the range of 0.000512-1000 nM were prepared. The plating medium was replaced with 1 mL tracing medium plus compounds and the cells were incubated for 5 hours under hypoxic conditions (1% O2). Plating medium in control wells (without cells or without compounds) was replaced with 1 mL tracing medium containing 0.01% v/v DMSO.
The level of ^13C-acetate incorporation into fatty acids (palmitate) was measured by LC-MS analysis and IC50 as described below:
Sample Preparation for LC-MS
• a) Cells were washed twice with cold phosphate buffered saline (PBS), scraped into 0.5 mL EDTA pH 8.0, and transferred into 1.1 mL V-shaped HPLC glass tubes. • b) The cell suspensions were centrifuged for 5 minutes at 400×g, 4° C. and the supernatants were removed. • c) Cell pellets were frozen at −80° C.
• d) Cell pellets were resuspended in 0.2 mL of 80% v/v ethanol in water containing 0.02 M NaOH in 1.1 ml glass (v-bottom) HPLC vials. • e) The vials were closed tight and incubated at 66° C. for 60 minutes. • f) Acetonitrile containing 2% v/v formic acid (150 μL) was added to each vial and the mixtures were transferred to Eppendorf tubes for centrifugation at 17 000×g for 20 minutes. • g) Supernatants were transferred to LC-MS vials.
The relative palmitate concentration was measured by LC-MS in reconstructed selected ion monitoring (RSIM) mode and negative ion mode. Samples were analyzed on a Phenomenex Kinetex 2.6 μm XB-C18 150×2.1 mm column at 45° C. (0.4 mL/minute flow rate) using: • a) A gradient from 15% A/85% C to 100% C for 0 to 2 minutes (A: water containing 5% v/v acetonitrile, 10 mM ammonium acetate, and 10 mM acetic acid; C: a mixture of 50% v/v acetonitrile and 50% v/v methanol). • b) Isocratic flow (100% C) for 2 to 5 minutes. • c) Equilibration in isocratic conditions (15% A/85% C) for 5 to 8 minutes.
Palmitate was eluted at approximately 3.4 minutes.
The percent inhibition was calculated relative to the sample without compound and after background deduction. IC50 values were calculated using non-linear regression curve fit analysis with 0% and 100% constraints (CDD Vault, Collaborative Drug Discovery, Inc. or GraphPad Prism).
The inhibitory activities of each compound against ACSS2 in MDA-MB-468 cells under high serum conditions, as determined by ^13C-acetate incorporation into fatty acids (palmitate), are presented in Table 2.

The next assay addresses T2, human ACSS2 protein (Homo sapiens, UniProt Q9NR19).
T2 construct: purchased OriGene Technologies, Inc
Put plainly: ACSS2 cell-free activity assay (pyrophosphatase-coupled, Biomol green). The conditions noted are these: 10 nM human ACSS2, 90 minutes at 37 C, absorbance at 620 nm; read-out: ACSS2 Biochemical IC50. Put shortly: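 10 nM human ACSS2 incubated 90 min at 37 C with compound, 300 μM ATP, 10 μM CoA, 5 mM NaAc in pH 7.5 Hepes buffer with 0.5 U/ml pyrophosphatase. Released phosphate detected with Biomol Green at 620 nm; IC50 by non-linear regression constrained to 0% and 100%.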

The target in another assay is T3, human ACSS1 protein (Homo sapiens, UniProt Q9NUB1).
T3 construct: purchased MyBioSource
T3 sequence (Q9NUB1 38-689): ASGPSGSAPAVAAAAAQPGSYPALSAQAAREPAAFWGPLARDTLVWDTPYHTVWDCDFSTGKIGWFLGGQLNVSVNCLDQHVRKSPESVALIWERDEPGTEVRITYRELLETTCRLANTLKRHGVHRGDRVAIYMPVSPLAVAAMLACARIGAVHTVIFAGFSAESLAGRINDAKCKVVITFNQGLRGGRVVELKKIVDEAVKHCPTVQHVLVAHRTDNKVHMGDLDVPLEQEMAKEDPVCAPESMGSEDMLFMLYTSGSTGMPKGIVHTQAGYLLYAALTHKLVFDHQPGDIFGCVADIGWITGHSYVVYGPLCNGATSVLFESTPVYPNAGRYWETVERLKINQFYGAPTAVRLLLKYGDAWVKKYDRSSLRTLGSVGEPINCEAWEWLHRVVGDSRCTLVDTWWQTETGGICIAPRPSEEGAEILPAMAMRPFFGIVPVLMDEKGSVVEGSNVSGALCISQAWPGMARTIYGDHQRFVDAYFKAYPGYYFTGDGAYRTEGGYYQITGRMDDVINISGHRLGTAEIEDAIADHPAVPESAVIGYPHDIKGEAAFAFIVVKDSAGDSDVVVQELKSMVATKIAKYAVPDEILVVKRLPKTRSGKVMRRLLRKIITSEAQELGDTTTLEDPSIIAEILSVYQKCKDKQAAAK
The experiment in a line: ACSS1 cell-free activity assay (pyrophosphatase-coupled, Biomol green). The format is biochemical. The conditions noted are these: 5 nM human ACSS1, 30 minutes at room temperature, absorbance at 620 nm; for IC50: read-out: ACSS1 Biochemical IC50. Put shortly:
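5 nM human ACSS1 incubated 30 min at RT with compound in pH 7.5 Hepes buffer with 15 μM CoA, 5 mM acetate, 300 μM ATP, 2 mM MgCl2 and pyrophosphatase. Released phosphate detected with Biomol Green (30 min), absorbance 620 nm. IC50 from constrained non-linear regression.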

T2 sequence (Q9NR19 whole entry): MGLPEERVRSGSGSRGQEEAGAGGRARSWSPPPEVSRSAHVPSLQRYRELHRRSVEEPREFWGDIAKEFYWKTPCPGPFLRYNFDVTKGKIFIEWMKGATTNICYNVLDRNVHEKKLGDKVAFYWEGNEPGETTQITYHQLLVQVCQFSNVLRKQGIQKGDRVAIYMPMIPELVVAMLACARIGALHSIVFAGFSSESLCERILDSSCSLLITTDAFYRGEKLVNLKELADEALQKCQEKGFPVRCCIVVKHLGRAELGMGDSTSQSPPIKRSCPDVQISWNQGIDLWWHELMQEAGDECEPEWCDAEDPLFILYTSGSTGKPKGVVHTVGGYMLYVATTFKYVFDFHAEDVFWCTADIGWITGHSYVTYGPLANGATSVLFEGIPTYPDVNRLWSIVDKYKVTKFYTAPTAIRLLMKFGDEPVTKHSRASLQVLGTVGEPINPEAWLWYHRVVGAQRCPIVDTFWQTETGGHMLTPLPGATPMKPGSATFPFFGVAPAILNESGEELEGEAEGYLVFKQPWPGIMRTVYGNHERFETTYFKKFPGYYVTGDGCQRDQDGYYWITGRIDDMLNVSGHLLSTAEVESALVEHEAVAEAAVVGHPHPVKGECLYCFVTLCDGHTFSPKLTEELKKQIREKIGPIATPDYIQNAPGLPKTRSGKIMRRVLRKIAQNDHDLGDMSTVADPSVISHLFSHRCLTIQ
T1 sequence (Q9NR19 whole entry): as above

One may read the IC50 as the midpoint of a concentration-inhibition curve. In the case of `CCC(F)(F)c1cccc(NC(=O)c2c(C)[nH]c(-c3cc(CCN(C)C)c(OC)c(-c4c(C)cccc4C)c3)[n+]2[O-])c1` [Compound 169, 4-((3-(1,1-difluoropropyl)phenyl)carbamoyl)-2-(5-(2-(dimethylamino)ethyl)-6-methoxy-2′,6′-dimethyl-[1,1′-biphenyl]-3-yl)-5-methyl-1H-imidazole 3-oxide], the IC50 in assay [1] is less than 20 nM; on human ACSS2 protein, less than 1 nM. The “ACSS1 Biochemical IC50 (nM)” value at human ACSS1 protein is given as “Inactive”.
With `CCC(F)(F)c1cccc(NC(=O)c2c(C)[nH]c(-c3cccc(-c4c(C)ncnc4C)c3)[n+]2[O-])c1` [Compound 112, 4-((3-(1,1-difluoropropyl)phenyl)carbamoyl)-2-(3-(4,6-dimethylpyrimidin-5-yl)phenyl)-5-methyl-1H-imidazole 3-oxide], the IC50 was less than 20 nM in assay [1], less than 1 nM at human ACSS2 protein and more than 30 nM on human ACSS1 protein.
Consider `CNC(=S)c1cccc(NC(=O)c2c(C)[nH]c(-c3ccc(OC)c(-c4c(C)cccc4C)c3)[n+]2[O-])c1` [Compound 196, 2-(6-methoxy-2′,6′-dimethyl-[1,1′-biphenyl]-3-yl)-5-methyl-4-((3-(methylcarbamothioyl)phenyl)carbamoyl)-1H-imidazole 3-oxide], for which the IC50 is less than 20 nM in assay [1] and less than 1 nM at human ACSS2 protein. The “ACSS1 Biochemical IC50 (nM)” value on human ACSS1 protein is reported as “Inactive”.
Take `CCC(F)(F)c1cccc(NC(=O)c2c(C)[nH]c(-c3cc(-c4c(C)cccc4C)c(OC)cn3)[n+]2[O-])c1` [Compound 157, 4-((3-(1,1-difluoropropyl)phenyl)carbamoyl)-2-(4-(2,6-dimethylphenyl)-5-methoxypyridin-2-yl)-5-methyl-1H-imidazole 3-oxide]: the figures for the IC50 (in assay [1]; at human ACSS2 protein) were more than 50 nM and less than 1 nM, respectively. Also, the “ACSS1 Biochemical IC50 (nM)” value at human ACSS1 protein is given as “Inactive”.
As to `CNC(=O)c1cccc(NC(=O)c2c(C)[nH]c(-c3ccc(F)c(-c4c(C)cccc4C)c3)[n+]2[O-])c1` [Compound 177, 2-(6-fluoro-2′,6′-dimethyl-[1,1′-biphenyl]-3-yl)-5-methyl-4-((3-(methylcarbamoyl)phenyl)carbamoyl)-1H-imidazole 3-oxide], the IC50 in assay [1] was less than 20 nM; at human ACSS2 protein, less than 1 nM; at human ACSS1 protein it was more than 30 nM.
On to `CNC(=O)c1cccc(NC(=O)c2c(C)[nH]c(-c3cc(-c4c(C)cccc4C)cc(N(C)C)c3)[n+]2[O-])c1` [Compound 182, 2-(5-(dimethylamino)-2′,6′-dimethyl-[1,1′-biphenyl]-3-yl)-5-methyl-4-((3-(methylcarbamoyl)phenyl)carbamoyl)-1H-imidazole 3-oxide], for which the values for the IC50 (in assay [1]; at human ACSS2 protein) were less than 20 nM and less than 1 nM, respectively. Further, the “ACSS1 Biochemical IC50 (nM)” value at human ACSS1 protein is listed as “Inactive”.
On to `CNC(=O)c1cccc(NC(=O)c2c(C)[nH]c(-c3ccc(OC)c(-c4c(C)cc(F)cc4C)c3)[n+]2[O-])c1` [Compound 185, 2-(4′-fluoro-6-methoxy-2′,6′-dimethyl-[1,1′-biphenyl]-3-yl)-5-methyl-4-((3-(methylcarbamoyl)phenyl)carbamoyl)-1H-imidazole 3-oxide], for which the IC50 in assay [1] is less than 20 nM; at human ACSS2 protein, less than 1 nM; on human ACSS1 protein it was more than 30 nM.
Regarding `CCC(F)(F)c1cccc(NC(=O)c2c(C)[nH]c(-c3ccc(OC)c(-c4ncccc4C)c3)[n+]2[O-])c1` [Compound 100, 4-((3-(1,1-difluoropropyl)phenyl)carbamoyl)-2-(4-methoxy-3-(3-methylpyridin-2-yl)phenyl)-5-methyl-1H-imidazole 3-oxide], the IC50 in assay [1] was less than 20 nM. Moreover, the “ACSS1 Biochemical IC50 (nM)” value at human ACSS1 protein was “Inactive”.
For the molecule `CCC(F)(F)c1cccc(NC(=O)c2c(C)[nH]c(-c3ccc(OC)cc3)[n+]2[O-])c1` [Compound 101, 4-((3-(1,1-difluoropropyl)phenyl)carbamoyl)-2-(4-methoxyphenyl)-5-methyl-1H-imidazole 3-oxide], the IC50 in assay [1] is 20 to 50 nM. For the same molecule, on human ACSS1 protein, the “ACSS1 Biochemical IC50 (nM)” value is recorded as “Inactive”.
